# Laboratory results reported in ChEMBL document CHEMBL5244219, “Recent developments of quinolone-based derivatives and their activities against Escherichia coli” (Eur J Med Chem, 2018).
# Legend:
# Escherichia coli [1] = experiment: Antibacterial activity against Escherichia coli KC-14 infected in po dosed mouse assessed as bacterial growth inhibition; assay type: functional; settings: Escherichia coli, KC-14, po, read-out: ED50
# [2] = Cmax in mouse at 20 mg/kg, po; assay type: ADME, organism-based; parameters: dose 20 mg/kg, route po; settings: in vivo
# [3] = AUC(0 to infinity) in mouse at 20 mg/kg, po; assay type: ADME, organism-based; parameters: dose 20 mg/kg, route po; settings: in vivo
# Escherichia coli [4] = experiment: Antibacterial activity against Escherichia coli KC-14 assessed as bacterial growth inhibition; assay type: functional
# [5] = Half life in mouse at 20 mg/kg, po; assay type: ADME, organism-based; settings: in vivo
# Escherichia coli [6] = experiment: Antibacterial activity against Escherichia coli H560 assessed as bacterial growth inhibition; assay type: functional
# Escherichia coli [7] = experiment: Antibacterial activity against Escherichia coli assessed as bacterial growth inhibition by agar dilution method; assay type: functional
# Escherichia coli [8] = experiment: Antibacterial activity against Escherichia coli assessed as bacterial growth inhibition incubated for 18 to 20 hrs by agar dilution method; assay type: functional; settings: time 18-20 hrs
# Escherichia coli [9] = experiment: Antibacterial activity against Escherichia coli NCDC 134 assessed as bacterial growth inhibition; assay type: functional
# Escherichia coli [10] = experiment: Antibacterial activity against Escherichia coli ES142 assessed as bacterial growth inhibition; assay type: functional
# DNA gyrase = DNA gyrase (Escherichia coli, UniProt P0AES4+P0AES6); experiment: Inhibition of Escherichia coli DNA gyrase; assay type: protein-complex assay
# Escherichia coli [11] = experiment: Antibacterial activity against Escherichia coli DC0 assessed as bacterial growth inhibition; assay type: functional
# Escherichia coli [12] = experiment: Antibacterial activity against Escherichia coli DC2 assessed as bacterial growth inhibition; assay type: functional
# Escherichia coli [13] = experiment: Antibacterial activity against Escherichia coli DC0 assessed as bacterial growth inhibition by agar dilution method; assay type: functional
# Escherichia coli [14] = experiment: Antibacterial activity against Escherichia coli DC2 assessed as bacterial growth inhibition by agar dilution method; assay type: functional
# [15] = AUC in marmoset at 3 mg/kg, iv; assay type: ADME, organism-based; parameters: dose 3 mg/kg, route iv; settings: callitrichinae sp., in vivo
# [16] = Half life in marmoset at 3 mg/kg, iv; assay type: ADME, organism-based; settings: callitrichinae sp., in vivo
# Escherichia coli [17] = experiment: Antibacterial activity against Escherichia coli ATCC 700603 assessed as bacterial growth inhibition by agar dilution method; assay type: functional
# Escherichia coli [18] = experiment: Antibacterial activity against Escherichia coli assessed as bacterial growth inhibition incubated for 24 hrs by agar streak dilution method; assay type: functional
# Escherichia coli [19] = experiment: Antibacterial activity against Escherichia coli JM109 assessed as bacterial growth inhibition; assay type: functional
# Escherichia coli [20] = experiment: Antibacterial activity against Escherichia coli assessed as bacterial growth inhibition; assay type: functional
# Escherichia coli [21] = experiment: Antibacterial activity against Escherichia coli assessed as bacterial growth inhibition incubated for 18 hrs by twofold serial dilution assay; assay type: functional
# Escherichia coli [22] = experiment: Antibacterial activity against Escherichia coli NCTC 10419 assessed as bacterial growth inhibition; assay type: functional
# Escherichia coli [23] = experiment: In vivo antibacterial activity against Escherichia coli NCTC 10419 infected in po dosed CF-mouse assessed as bacterial growth inhibition; assay type: functional, organism-based
# Escherichia coli [24] = experiment: Antibacterial activity against Escherichia coli assessed as bacterial growth inhibition by broth microdilution method; assay type: functional
# Escherichia coli [25] = experiment: Antibacterial activity against Escherichia coli ISF 432 assessed as bacterial growth inhibition; assay type: functional
# Escherichia coli [26] = experiment: Antibacterial activity against Escherichia coli ATCC 8739 assessed as bacterial growth inhibition; assay type: functional
# Escherichia coli [27] = experiment: Antibacterial activity against Escherichia coli assessed as bacterial growth inhibition incubated for 18 hrs by agar dilution method; assay type: functional
# Escherichia coli [28] = experiment: Antibacterial activity against Escherichia coli ATCC 35218 assessed as bacterial growth inhibition incubated for 18 hrs by agar dilution method; assay type: functional
# Escherichia coli [29] = experiment: Antibacterial activity against Escherichia coli TolC assessed as bacterial growth inhibition; assay type: functional
# Escherichia coli [30] = experiment: Antibacterial activity against Escherichia coli DH5alpha assessed as bacterial growth inhibition; assay type: functional
# Escherichia coli [31] = experiment: Potency index, ratio of ceftazidime MIC to compound IC50 for antibacterial activity against Escherichia coli DC0; assay type: functional
# Escherichia coli [32] = experiment: Potency index, ratio of ceftazidime MIC to compound IC50 for antibacterial activity against Escherichia coli DC2; assay type: functional
# Escherichia coli [33] = experiment: Antibacterial activity against Escherichia coli K-12 C600 assessed as bacterial growth inhibition; assay type: functional
smiles,measurement,setting,value
CN1CCN(c2cc3c(cc2F)c(=O)c(C(=O)O)c2n3C(CF)S2)CC1 (stereo unspecified),ED50,Escherichia coli [1],0.85 mg/kg
same,Cmax,[2],4400 ng/mL
same,AUC(0-inf),[3],6900 ng·h/mL
same,MIC,Escherichia coli [4],0.05 µg/mL
same,half-life,[5],1.5 h
COc1c(N2CCNC(C)C2)c(F)cc2c(=O)c(C(=O)O)cn(C3CC3)c12 (stereo unspecified) [GATIFLOXACIN],MIC,Escherichia coli [6],0.006 µg/mL
same,MIC90,Escherichia coli [7],4 µg/mL
same,MIC,Escherichia coli [8],0.015 µg/mL
same,MIC,Escherichia coli [9],100 µg/mL
C[C@H](N)[C@@H]1CCN(c2cc3c4c(c2)c(=O)c(C(=O)O)cn4[C@@H](C)CO3)C1,MIC,Escherichia coli [10],0.063 µg/mL
same,IC50,DNA gyrase,17.9 µM
same,MIC,Escherichia coli [11],0.063 µg/mL
same,MIC,Escherichia coli [12],0.063 µg/mL
CC(C)(O/N=C(\C(=O)N[C@@H]1C(=O)N2C(C(=O)[O-])=C(C[n+]3ccccc3)CS[C@H]12)c1csc(N)n1)C(=O)O [CEFTAZIDIME],MIC,Escherichia coli [13],0.06 µg/mL
same,MIC,Escherichia coli [14],0.06 µg/mL
same,AUC,[15],14000 ng·h/mL
same,half-life,[16],0.7 h
CCn1cc(C(=O)O)c(=O)c2cc(F)c(N3CCNCC3)cc21 [NORFLOXACIN],MIC,Escherichia coli [17],4 µg/mL
same,MIC,Escherichia coli [18],6.25 µg/mL
same,MIC,Escherichia coli [19],1 µg/mL
same,MIC,Escherichia coli [20],0.1 µg/mL
same,MIC,Escherichia coli [8],0.31 µg/mL
same,MIC,Escherichia coli [21],0.25 µg/mL
same,MIC,Escherichia coli [9],25 µg/mL
COc1cc(Cc2cnc(/N=C3\C(=O)N(CN4CCN(c5cc6c(cc5F)c(=O)c(C(=O)O)cn6C5CC5)CC4)c4ccc(C)cc43)nc2N)cc(OC)c1OC,MIC,Escherichia coli [22],0.0002 µg/mL
same,EC50,Escherichia coli [23],0.62 mg/kg
CCn1cc(C(=O)NNS(=O)(=O)c2ccc(C)cc2)c(=O)c2ccccc21,MIC,Escherichia coli [24],0.0625 µg/mL
Cc1c(N2C[C@@H](F)[C@@H](C3(N)CC3)C2)c(F)c(N)c2c(=O)c(C(=O)O)cn([C@@H]3C[C@@H]3F)c12 [DQ-113],MIC,Escherichia coli [6],≤ 0.003 µg/mL
Cc1c(N2CC(C)OC(C)C2)c(N)cc2c(=O)c(C(=O)O)cn(C3CC3)c12 (stereo unspecified),MIC,Escherichia coli [25],0.008 µg/mL
same,MIC,Escherichia coli [26],0.008 µg/mL
N[C@@H]1CN(c2c(F)cc3c(=O)c(C(=O)O)cn([C@@H]4C[C@@H]4F)c3c2Cl)CC12CC2 [SITAFLOXACIN ANHYDROUS],MIC,Escherichia coli [27],≤ 0.006 µg/mL
CCn1cc(C(=O)NN)c(=O)c2cc(F)ccc21,MIC,Escherichia coli [24],0.0625 µg/mL
COc1cccc(CO/N=C2\CCN(c3c(F)cc4c(=O)c(C(=O)O)cn(C5CC5)c4c3OC)CC2N)c1OC (stereo unspecified),MIC,Escherichia coli [28],< 0.008 µg/mL
NC1CCN(c2nc3c(cc2F)c(=O)c(C(=O)O)cn3-c2ccc(F)cc2F)C1 (stereo unspecified) [TOSUFLOXACIN],MIC,Escherichia coli [6],≤ 0.003 µg/mL
C[C@H]1NCc2cc(-c3ccc4c(=O)c(C(=O)O)cn(C5CC5)c4c3OC(F)F)ccc21 [GARENOXACIN],MIC90,Escherichia coli [7],4 µg/mL
Cc1[nH]c2ccccc2c(=O)c1C,MIC50,Escherichia coli [29],> 1.41 µg/mL
same,MIC50,Escherichia coli [30],> 64 µg/mL
COc1cccc(CO/N=C2\CCN(c3c(F)cc4c(=O)c(C(=O)O)cn(C5CC5)c4c3OC)CC2N)c1 (stereo unspecified),MIC,Escherichia coli [28],< 0.008 µg/mL
COc1c(N2CC3(CC3)[C@](C)(N)C2)c(F)cc2c(=O)c(C(=O)O)cn([C@@H]3C[C@@H]3F)c12,MIC,Escherichia coli [27],≤ 0.006 µg/mL
CC1Sc2c(C(=O)O)c(=O)c3cc(F)c(N4CCN(C)CC4)cc3n21 (stereo unspecified),ED50,Escherichia coli [1],0.97 mg/kg
same,Cmax,[2],940 ng/mL
same,AUC(0-inf),[3],2600 ng·h/mL
same,MIC,Escherichia coli [4],0.025 µg/mL
same,half-life,[5],2.8 h
CCO/N=C(\C(=O)N[C@@H]1C(=O)N2C(C(=O)O)=C(CNC(=O)c3cn(CC)c4cc(O)c(O)cc4c3=O)CSC12)c1csc(N)n1 (stereo in doubt),MIC,Escherichia coli [13],0.008 µg/mL
same,Ratio,Escherichia coli [31],8
same,MIC,Escherichia coli [14],0.008 µg/mL
same,Ratio,Escherichia coli [32],8
CC(C)=CCc1c(C)[nH]c2ccccc2c1=O,MIC50,Escherichia coli [29],> 1.41 µg/mL
same,MIC50,Escherichia coli [30],> 64 µg/mL
CN1CCN(c2cc3c(cc2F)c(=O)c(C(=O)O)c2n3CCS2)CC1,MIC,Escherichia coli [4],0.2 µg/mL
same,MIC,Escherichia coli [33],0.2 µg/mL
C[C@H]1COc2cc(N3CC[C@@H](C(C)(C)N)C3)cc3c(=O)c(C(=O)O)cn1c23,MIC,Escherichia coli [10],0.063 µg/mL
same,IC50,DNA gyrase,8.62 µM
same,MIC,Escherichia coli [11],0.063 µg/mL
same,MIC,Escherichia coli [12],0.063 µg/mL
